Our source for the IC50 values is BindingDB's records for patent US20230365554 (The Broad Institute, 2023).

Structures are written as SMILES.

Assay [1] deals with T1, Casein kinase I isoform alpha (Homo sapiens, UniProt P48729). Nature of the assay: CSNK1A1 Assay 2. As for the experimental part: CSNK1A1-inhibitory activity of compounds of the present invention in presence of 1 μM adenosine-tri-phosphate (ATP) was quantified employing the CSNK1A1 assay as described in the following paragraphs. In essence, the enzyme activity is measured by quantification of the adenosine-di-phosphate (ADP), which is generated as a co-product of the enzyme reaction, via the ADP-Glo Kinase Assay kit from the company Promega. This detection system works as follows: In a first step the ATP not consumed in the kinase reaction is quantitatively converted to cAMP employing an adenylate cyclase ( ADP-Glo-reagent ), then the adenylate cyclase is stopped and the ADP generated in the kinase reaction converted to ATP which generates in a luciferase-based reaction a glow-luminescence signal ( Kinase Detection Reagent ). Recombinant fusion protein of N-terminal Glutathion-S-Transferase (GST) and full-length human CSNK1A1, expressed by baculovirus infected insect cells and purified via Glutathion affinity chromatography, was purchased from Life Technologies (product no. PV4174) and used as enzyme. As substrate for the kinase reaction the biotinylated peptide biotin-Ahx-KRRRAL-pS-VASLPGL (C-terminus in amide form) was used which can be purchased e.g. from the company Biosyntan (Berlin-Buch, Germany).For the assay 50 nl of a 100 fold concentrated solution of the test compound in DMSO was pipetted into a white 1536-well microtiter plate (Greiner Bio-One, Frickenhausen, Germany), 2 μL of a solution of CSNK1A1 in aqueous assay buffer [50 mM HEPES pH 7.5, 10% (v/v) glycerol, 10 mM MgCl2, 50 mM NaCl, 1 mM dithiothreitol, 0.01% (w/v) bovine serum albumin, 0.01% (v/v) Triton X-100] were added and the mixture was incubated for 15 min at 22 C. to allow pre-binding of the test compounds to the enzyme before the start of the kinase reaction. […]

The target of assay [2] is Casein kinase I isoform delta (Homo sapiens, UniProt P48730). As to the kind of experiment: CSNK1D Assay. As to the method: CSNK1D-inhibitory activity of compounds of the present invention in presence of 1 μM adenosine-tri-phosphate (ATP) was quantified employing the CSNK1D assay as described in the following paragraphs. In essence, the enzyme activity is measured by quantification of the adenosine-di-phosphate (ADP), which is generated as a co-product of the enzyme reaction, via the ADP-Glo Kinase Assay kit from the company Promega. This detection system works as follows: In a first step the ATP not consumed in the kinase reaction is quantitatively converted to cAMP employing an adenylate cyclase ( ADP-Glo-reagent ), then the adenylate cyclase is stopped and the ADP generated in the kinase reaction converted to ATP which generates in a luciferase-based reaction a glow-luminescence signal ( Kinase Detection Reagent ).Recombinant fusion protein of N-terminal Glutathion-S-Transferase (GST) and full-length human CSNK1D, expressed by baculovirus infected insect cells and purified via Glutathion affinity chromatography, was purchased from Life Technologies (product no. PV3665) and used as enzyme. […]

The target of assay [3] is T1, Casein kinase I isoform alpha. Nature of the assay: CSNK1A1 Assay 1. As to the method: CSNK1A1-inhibitory activity of compounds of the present invention in presence of 1 μM adenosine-tri-phosphate (ATP) was quantified employing the CSNK1A1 assay as described in the following paragraphs. In essence, the enzyme activity is measured by quantification of the adenosine-di-phosphate (ADP), which is generated as a co-product of the enzyme reaction, via the ADP-Glo Kinase Assay kit from the company Promega. This detection system works as follows: In a first step the ATP not consumed in the kinase reaction is quantitatively converted to cAMP employing an adenylate cyclase ( ADP-Glo-reagent ), then the adenylate cyclase is stopped and the ADP generated in the kinase reaction converted to ATP which generates in a luciferase-based reaction a glow-luminescence signal ( Kinase Detection Reagent ).Recombinant fusion protein of N-terminal Glutathion-S-Transferase (GST) and full-length human CSNK1A1, expressed by baculovirus infected insect cells and purified via Glutathion affinity chromatography, was purchased from Life Technologies (product no. PV4174) and used as enzyme. […] Subsequently 2.5 μL of the kinase detection reagent (1.2 fold more concentrated than recommended by the producer) were added, the resulting mixture was incubated at 22° C. for 1 h and then the luminescence measured with a suitable measurement instrument (e.g. Viewlux from Perkin-Elmer). […]

T1 sequence (P48729 whole entry, canonical isoform): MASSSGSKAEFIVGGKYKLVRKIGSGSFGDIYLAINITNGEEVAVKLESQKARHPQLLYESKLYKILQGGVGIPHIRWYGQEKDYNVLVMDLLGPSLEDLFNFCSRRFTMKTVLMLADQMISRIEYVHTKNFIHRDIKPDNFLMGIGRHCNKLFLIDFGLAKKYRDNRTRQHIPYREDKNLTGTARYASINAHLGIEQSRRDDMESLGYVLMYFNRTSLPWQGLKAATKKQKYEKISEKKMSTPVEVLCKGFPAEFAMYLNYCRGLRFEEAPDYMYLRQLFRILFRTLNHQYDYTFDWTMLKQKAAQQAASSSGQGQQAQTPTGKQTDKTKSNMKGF
Chain of Casein kinase I isoform delta (P48730 whole entry, canonical isoform): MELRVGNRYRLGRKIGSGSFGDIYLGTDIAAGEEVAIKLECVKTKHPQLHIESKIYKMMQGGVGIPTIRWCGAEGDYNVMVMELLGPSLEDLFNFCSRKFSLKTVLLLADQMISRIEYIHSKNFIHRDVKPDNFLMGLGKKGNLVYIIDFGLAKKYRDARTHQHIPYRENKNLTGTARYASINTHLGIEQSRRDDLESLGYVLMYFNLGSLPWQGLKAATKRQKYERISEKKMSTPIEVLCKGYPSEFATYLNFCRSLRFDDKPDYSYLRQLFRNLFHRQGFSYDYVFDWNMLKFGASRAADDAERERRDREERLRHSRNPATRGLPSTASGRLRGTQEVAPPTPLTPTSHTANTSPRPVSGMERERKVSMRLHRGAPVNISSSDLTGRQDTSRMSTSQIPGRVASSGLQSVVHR

For orientation: IC50 means the concentration that inhibits the measured activity by half. A lower IC50 goes with greater potency in that assay. For `Cc1cn(C)c(=O)c2c(Nc3ccccc3)c(-c3ccnc(NC(=O)Cc4ccc(F)cc4)c3)[nH]c12` [US20230365554, Example 38], the IC50 in assay [1] was determined as 4.2 nM; in assay [2] it was 6.6 nM.
For `CC(=O)Nc1cc(-c2[nH]c3c(c2Nc2ccccc2)C(=O)N(C)CC3)ccn1`, the IC50 in assay [1] is 11 nM.
In turn, `CN1CCc2[nH]c(-c3ccnc(NC(=O)[C@@H]4C[C@H]4F)c3)c(Nc3ccccc3)c2C1=O` (relative stereo) [WO 2016/120196, Example 25] displayed an IC50 in assay [3] of 63 nM.
For `CC1CN(C)C(=O)c2c1[nH]c(-c1ccnc(NC(=O)C(CC(F)F)c3ccc(F)cc3)c1)c2Nc1ccccc1` (mixture of isomers) [US20230365554, Example 10], the IC50 in assay [1] is 5.4 nM; in assay [2], 9.1 nM.
